From patent publication US11141413B2, “Method of treating renal cell carcinoma using N-(4-(6,7-dimethoxyquinolin-4-yloxy)phenyl)-N′-(4-fluorophenyl)cyclopropane-1,1-dicarboxamide, (2S)-hydroxybutanedioate” (Exelixis, Inc., priority 2016, dated 2021)
Several values for one entry are separate records, joined by “and”; a condition that tells them apart may be missing. Identical values can stand only once.

How the values were obtained:
[1] = tested on: advanced renal cell carcinoma (RCC); test: METEOR (Study 1) randomized phase 3 trial, cabozantinib vs everolimus: PFS, OS, ORR; format: in vivo, human; settings: for PFS event: all randomized
RET = RET (Homo sapiens, UniProt P07949); test: In vitro biochemical and/or cellular kinase assays
CYP1A2 [2] = target: T1, CYP1A2 (Homo sapiens, UniProt P05177); test: In vitro CYP inhibition by cabozantinib; format: in vitro ADME
QTc interval = settings: human, in vivo
ROS1 = ROS1 (Homo sapiens, UniProt P08922); test: In vitro biochemical and/or cellular kinase assays
CYP1A2 [3] = target: T1, CYP1A2; test: Metabolic pathways in vitro: effect of CYP inhibition on cabozantinib metabolite formation; format: in vitro ADME
[4] = all 658 randomized, per IRC, cutoff May 22, 2015
[5] = earlier cutoff at 247 events in the ITT Pop (traditional design)
[6] = high tumor burden (≥median SoD)
[7] = patients with bone and visceral metastases
[8] = patients with visceral (lung or liver) metastases
[9] = pazopanib only prior VEGFR TKI subgroup
[10] = prior therapy subgroup Anti-PD-1/PD-L1
[11] = prior therapy subgroup Pazopanib Only
[12] = prior therapy subgroup Sunitinib Only
[13] = sunitinib only prior VEGFR TKI subgroup

T1 sequence (P05177 whole entry): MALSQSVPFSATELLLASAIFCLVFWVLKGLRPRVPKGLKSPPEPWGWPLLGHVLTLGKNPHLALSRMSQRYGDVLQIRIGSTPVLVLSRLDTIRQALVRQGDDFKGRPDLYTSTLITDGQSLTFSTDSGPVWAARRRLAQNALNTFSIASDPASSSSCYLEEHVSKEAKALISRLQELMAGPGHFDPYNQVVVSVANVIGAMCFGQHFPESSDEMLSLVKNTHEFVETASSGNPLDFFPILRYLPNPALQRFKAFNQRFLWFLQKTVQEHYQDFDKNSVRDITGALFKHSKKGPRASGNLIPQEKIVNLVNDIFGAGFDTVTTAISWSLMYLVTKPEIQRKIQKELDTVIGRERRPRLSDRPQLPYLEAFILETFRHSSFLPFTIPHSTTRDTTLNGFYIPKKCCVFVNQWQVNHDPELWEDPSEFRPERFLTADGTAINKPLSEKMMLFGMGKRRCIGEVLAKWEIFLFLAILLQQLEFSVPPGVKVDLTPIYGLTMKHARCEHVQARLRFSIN
Chain of RET (P07949 29-1114): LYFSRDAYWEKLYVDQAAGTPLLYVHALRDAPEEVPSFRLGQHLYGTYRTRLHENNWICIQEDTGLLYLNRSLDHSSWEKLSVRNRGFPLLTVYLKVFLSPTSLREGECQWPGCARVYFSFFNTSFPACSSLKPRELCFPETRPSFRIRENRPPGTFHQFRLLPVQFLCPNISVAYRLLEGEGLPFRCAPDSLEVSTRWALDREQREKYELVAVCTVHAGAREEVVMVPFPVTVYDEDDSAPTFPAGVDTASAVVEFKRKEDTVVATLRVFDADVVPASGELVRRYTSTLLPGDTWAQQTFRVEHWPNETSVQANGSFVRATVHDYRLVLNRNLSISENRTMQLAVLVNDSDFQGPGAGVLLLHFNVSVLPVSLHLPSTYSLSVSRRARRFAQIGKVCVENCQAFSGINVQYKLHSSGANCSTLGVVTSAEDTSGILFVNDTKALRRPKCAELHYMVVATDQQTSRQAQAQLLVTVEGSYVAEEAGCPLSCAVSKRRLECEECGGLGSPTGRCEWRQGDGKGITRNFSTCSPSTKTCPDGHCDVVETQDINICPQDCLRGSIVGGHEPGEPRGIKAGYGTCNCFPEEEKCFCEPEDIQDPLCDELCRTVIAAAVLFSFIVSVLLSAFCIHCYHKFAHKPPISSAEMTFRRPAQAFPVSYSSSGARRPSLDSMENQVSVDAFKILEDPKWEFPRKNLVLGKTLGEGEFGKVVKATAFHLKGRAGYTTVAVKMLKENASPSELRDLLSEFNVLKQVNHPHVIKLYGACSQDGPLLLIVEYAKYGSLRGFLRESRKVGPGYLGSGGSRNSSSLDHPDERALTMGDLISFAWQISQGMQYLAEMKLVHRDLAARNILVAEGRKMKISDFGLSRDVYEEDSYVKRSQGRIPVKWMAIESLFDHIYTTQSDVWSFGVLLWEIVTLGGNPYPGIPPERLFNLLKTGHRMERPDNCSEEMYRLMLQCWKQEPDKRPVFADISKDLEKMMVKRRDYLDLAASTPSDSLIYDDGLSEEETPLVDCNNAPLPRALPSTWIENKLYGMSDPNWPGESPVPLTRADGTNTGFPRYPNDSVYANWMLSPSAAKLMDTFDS
Chain of ROS1 (P08922 28-2347): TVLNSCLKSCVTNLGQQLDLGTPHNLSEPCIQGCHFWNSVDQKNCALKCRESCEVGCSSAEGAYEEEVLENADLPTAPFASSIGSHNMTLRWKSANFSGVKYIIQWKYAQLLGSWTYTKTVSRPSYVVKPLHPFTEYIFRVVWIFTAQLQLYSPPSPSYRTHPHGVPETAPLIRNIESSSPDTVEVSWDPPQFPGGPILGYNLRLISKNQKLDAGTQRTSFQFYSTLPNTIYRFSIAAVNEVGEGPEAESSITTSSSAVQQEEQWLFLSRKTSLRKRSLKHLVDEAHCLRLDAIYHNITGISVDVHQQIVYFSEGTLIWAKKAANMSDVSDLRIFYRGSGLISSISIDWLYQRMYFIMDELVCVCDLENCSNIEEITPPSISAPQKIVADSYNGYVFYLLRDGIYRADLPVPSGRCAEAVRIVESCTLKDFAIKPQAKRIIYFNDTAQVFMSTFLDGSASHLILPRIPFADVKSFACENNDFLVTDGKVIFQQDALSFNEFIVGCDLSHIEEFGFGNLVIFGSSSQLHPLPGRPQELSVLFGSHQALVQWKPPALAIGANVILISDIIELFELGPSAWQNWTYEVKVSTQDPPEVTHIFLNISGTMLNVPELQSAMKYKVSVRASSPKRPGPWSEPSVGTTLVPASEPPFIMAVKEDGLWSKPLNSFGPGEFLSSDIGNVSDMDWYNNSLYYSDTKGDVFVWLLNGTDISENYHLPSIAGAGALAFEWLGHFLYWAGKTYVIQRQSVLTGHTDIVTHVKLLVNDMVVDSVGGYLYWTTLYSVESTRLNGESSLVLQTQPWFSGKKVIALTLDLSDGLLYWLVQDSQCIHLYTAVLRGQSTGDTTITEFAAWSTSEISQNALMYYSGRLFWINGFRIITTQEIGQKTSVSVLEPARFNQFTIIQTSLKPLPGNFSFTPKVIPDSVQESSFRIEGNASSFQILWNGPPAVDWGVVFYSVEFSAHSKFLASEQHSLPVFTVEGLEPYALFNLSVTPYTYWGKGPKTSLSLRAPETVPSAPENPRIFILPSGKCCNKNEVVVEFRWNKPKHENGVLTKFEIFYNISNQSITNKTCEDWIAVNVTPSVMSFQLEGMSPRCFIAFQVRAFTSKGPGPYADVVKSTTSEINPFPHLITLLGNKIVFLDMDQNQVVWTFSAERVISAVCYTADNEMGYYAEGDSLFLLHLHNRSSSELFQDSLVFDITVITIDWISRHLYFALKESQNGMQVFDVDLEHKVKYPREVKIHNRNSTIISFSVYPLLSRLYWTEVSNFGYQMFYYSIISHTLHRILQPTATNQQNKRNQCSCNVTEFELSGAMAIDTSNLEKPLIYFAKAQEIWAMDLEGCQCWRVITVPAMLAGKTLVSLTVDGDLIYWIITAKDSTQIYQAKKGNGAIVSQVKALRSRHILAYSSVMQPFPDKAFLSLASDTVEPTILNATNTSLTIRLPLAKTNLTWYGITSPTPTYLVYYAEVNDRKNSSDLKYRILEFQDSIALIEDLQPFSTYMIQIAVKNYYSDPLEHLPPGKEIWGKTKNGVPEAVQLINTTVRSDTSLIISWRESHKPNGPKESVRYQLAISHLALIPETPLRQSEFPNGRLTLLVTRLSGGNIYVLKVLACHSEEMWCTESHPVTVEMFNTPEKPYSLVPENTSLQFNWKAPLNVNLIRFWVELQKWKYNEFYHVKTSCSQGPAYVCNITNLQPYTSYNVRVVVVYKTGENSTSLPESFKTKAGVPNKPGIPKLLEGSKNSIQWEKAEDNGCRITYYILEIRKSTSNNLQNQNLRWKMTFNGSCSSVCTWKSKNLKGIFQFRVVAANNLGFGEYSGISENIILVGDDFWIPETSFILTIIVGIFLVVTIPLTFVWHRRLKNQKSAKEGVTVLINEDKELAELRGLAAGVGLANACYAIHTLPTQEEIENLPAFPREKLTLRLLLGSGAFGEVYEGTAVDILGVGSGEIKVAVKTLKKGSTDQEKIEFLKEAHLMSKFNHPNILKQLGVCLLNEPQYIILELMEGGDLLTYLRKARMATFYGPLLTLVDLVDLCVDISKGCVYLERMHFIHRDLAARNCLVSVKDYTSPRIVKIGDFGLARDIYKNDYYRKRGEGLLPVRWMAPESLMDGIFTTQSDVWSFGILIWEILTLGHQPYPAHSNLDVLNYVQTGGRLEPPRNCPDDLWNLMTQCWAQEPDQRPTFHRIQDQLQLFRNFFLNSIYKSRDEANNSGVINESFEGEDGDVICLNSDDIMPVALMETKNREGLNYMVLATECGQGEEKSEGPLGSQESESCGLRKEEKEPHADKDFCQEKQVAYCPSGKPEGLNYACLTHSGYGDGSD

## COc1cc2nccc(Oc3ccc(NC(=O)C4(C(=O)Nc5ccc(F)cc5)CC4)cc3)c2cc1OC [cabozantinib]
[1]; all 658 randomized, cutoff May 22, 2015
  Objective response rate per investigator: 24%
[1]; [4]
  Median duration of PFS: 7.4 months
  PFS HR, cabozantinib vs everolimus: 0.51 and 0.52
[1]; all 658 randomized, per IRC, cutoff May 22, 2015, listed as Cabozantinib
  Median duration of PFS: 7.4 (6.6-9.1) months and 7.4 months
[1]; all 658 randomized, per investigator
  PFS HR, cabozantinib vs everolimus: 0.54
[1]; all 658 randomized, per investigator, cutoff May 22, 2015
  Median duration of PFS: 7.4 (7.3-7.8) months
[1]; all 658 randomized, per investigator, listed as Cabozantinib
  PFS HR, cabozantinib vs everolimus: 0.54 (0.45-0.66)
[1]; per IRC, cutoff May 22, 2015
  PFS event: 180 (55) ^ n (%)
[1]; per investigator, cutoff May 22, 2015
  PFS event: 196 (59) ^ n (%)
[1]; [5]
  Median PFS, alternative analysis: 6 mo
  PFS HR, alternative analysis: 0.49 and 0.48
[1]; first 375 randomized, per independent radiology review committee (IRC)
  Median PFS: 7.4 months
[1]; high MET tumor expression
  Median OS: 22.0 months
  OS HR, cabozantinib vs everolimus: 0.55
[1]; high tumor burden
  Median OS: 18.1 mo
[1]; [6]
  OS HR, cabozantinib vs eve: 0.60
  PFS HR, cabozantinib vs eve: 0.41
[1]; in vivo
  Patients with reduction in measurable tumor lesion size: 75%
[1]; low MET tumor expression
  Median OS: 20.8 months
  OS HR, cabozantinib vs everolimus: 0.72
[1]; low tumor burden
  Median OS: 22.0 mo
[1]; low tumor burden (<median SoD)
  OS HR, cabozantinib vs eve: 0.76
  PFS HR, cabozantinib vs eve: 0.63
[1]; patients enrolled in Canada
  Median OS: 20.8 mo
  Median PFS: 7.4 mo
  ORR: 17%
  OS HR, cabo vs eve: 0.33
  PFS HR, cabo vs eve: 0.40
[1]; patients with bone + visceral metastases
  PFS HR, cabozantinib vs everolimus: 0.26
[1]; [7]
  Median PFS: 5.6 mo
  ORR: 20%
  OS HR, cabozantinib vs everolimus: 0.45
[1]; patients with bone metastases
  Median PFS: 7.4 mo
  ORR: 17%
  OS HR, cabozantinib vs everolimus: 0.54
[1]; patients with bone metastases at baseline
  PFS HR, cabozantinib vs everolimus: 0.33
[1]; [8]
  OS HR, cabozantinib vs eve: 0.66
  PFS HR, cabozantinib vs eve: 0.48
[1]; pazopanib as only prior VEGFR TKI
  OS HR, cabozantinib vs everolimus: 0.66
[1]; [9]
  Median OS: 22.0 months
  Median PFS: 7.4 months
[1]; per IRC
  Best overall response: confirmed complete response: 0 n
  Best overall response: confirmed partial response: 57 n
[1]; per investigator
  Best overall response: confirmed complete response: 0 n
[1]; [10]
  Confirmed ORR (95% CI), tumor response by IRC: 22 (6-48) %
  Confirmed ORR (95% CI), tumor response by investigator: 22 (6-48) %
  Progressive disease, tumor response by IRC: 11%
  Progressive disease, tumor response by investigator: 11%
  Stable disease, tumor response by IRC: 50%
  Stable disease, tumor response by investigator: 56%
[1]; [11]
  Confirmed ORR (95% CI), tumor response by IRC: 19 (12-29) %
  Confirmed ORR (95% CI), tumor response by investigator: 31 (21-41) %
  Progressive disease, tumor response by IRC: 14%
  Progressive disease, tumor response by investigator: 3%
  Stable disease, tumor response by IRC: 65%
  Stable disease, tumor response by investigator: 64%
[1]; [12]
  Confirmed ORR (95% CI), tumor response by IRC: 16 (11-24) %
  Confirmed ORR (95% CI), tumor response by investigator: 23 (16-31) %
  Progressive disease, tumor response by IRC: 12%
  Progressive disease, tumor response by investigator: 11%
  Stable disease, tumor response by IRC: 66%
  Stable disease, tumor response by investigator: 60%
[1]; region Asia Pacific (AP)
  ORR: 28%
  OS HR, cabozantinib vs eve: 0.49
  PFS HR, cabozantinib vs eve: 0.43
[1]; region Europe (EU)
  ORR: 15%
  OS HR, cabozantinib vs eve: 0.67
  PFS HR, cabozantinib vs eve: 0.54
[1]; region North America (NA)
  ORR: 16%
  OS HR, cabozantinib vs eve: 0.79
  PFS HR, cabozantinib vs eve: 0.50
[1]; second interim analysis of OS, of randomized patients
  Deaths: 42%
[1]; sunitinib as only prior VEGFR TKI
  OS HR, cabozantinib vs everolimus: 0.66
[1]; [13]
  Median OS: 21.4 months
  Median PFS: 9.1 months
RET
  Inhibition of tyrosine kinase activity: inhibits
CYP1A2 [2]
  Inhibition of CYP1A2 in vitro: does not inhibit
QTc interval
  Changes in cardiac wave form morphology or new rhythms: not observed
ROS1
  Inhibition of tyrosine kinase activity: inhibits
CYP1A2 [3]
  Effect of inhibition of CYP1A2 on cabozantinib metabolite formation: no effect
